Results on three molecules are retold here after PMC3433276 (Bioorganic & medicinal chemistry letters, 2012).

For experiment [1], the system named is panel of multidrug-resistant HIV-1 strains. Kind of experiment: microbe, parasite or virus in culture. The class given is cell-based. The conditions noted are these: for fold-changes in EC50: against all MDR HIV-1 viruses compared to wild type.
A further experiment concerns HIV-1LAI. The experiment is described as follows: Antiviral MTT assay in MT-2 cells exposed to HIV-1LAI. It counts as cell-based. The conditions noted are these: Human immunodeficiency virus 1, MT2.

For `COC(=O)N[C@@H]1CO[C@@H]2C[C@H](OC(=O)N[C@@H](Cc3ccccc3)[C@H](O)CN(CC(C)C)S(=O)(=O)c3ccc(OC)cc3)C[C@H]12` [Inhibitor 3c], the “fold-changes in EC50” value in experiment [1] was under 3.

Take `COC(=O)N[C@H]1CO[C@@H]2C[C@H](OC(=O)N[C@@H](Cc3ccccc3)[C@H](O)CN(CC(C)C)S(=O)(=O)c3ccc(OC)cc3)C[C@H]12` [Inhibitor 3d]: the EC50 (in general, the concentration giving half of the maximal effect) in experiment [1] (Human immunodeficiency virus 1) fell in the range of 0.015 to 0.024 µM. In experiment [1], the “fold-changes in EC50” value was “increased by a factor of at least three”.

Regarding `CC(C)CN(C[C@@H](O)[C@H](Cc1ccccc1)NC(=O)O[C@H]1CCOC1)S(=O)(=O)c1ccc(N)cc1` [amprenavir], in the experiment on HIV-1LAI, the midpoint of inhibition, the IC50, lay at 0.03 µM.
